Source: PMC12114630 (Pharmaceuticals, 2025)
Where two headings read alike, the source gives them in different places.

What was measured:
D3R (hD3R) = target: T1, D3R (hD3R) (Homo sapiens, UniProt P35462); assay: [3H]N-methylspiperone competition, membranes; type: binding; details: read-out: pKi / D3R (converted)
T1 construct: gene DRD3; human cloned receptor stably expressed in HEK293 cells; membranes
Description: [3H]N-methylspiperone competition, membranes on D3R (hD3R)

D2R (hD2R) = target: T2, D2R (hD2R) (Homo sapiens, UniProt P14416); assay: [3H]N-methylspiperone competition, membranes; type: binding; details: read-out: pKi / D2R (converted)
T2 construct: gene DRD2; human cloned receptor stably expressed in HEK293 cells; membranes
Description: [3H]N-methylspiperone competition, membranes on D2R (hD2R)

D4R (hD4.4R) = target: T3, D4R (hD4.4R) (Homo sapiens, UniProt P21917); assay: [3H]N-methylspiperone competition, membranes; type: binding; details: read-out: pKi / D4R (converted)
T3 construct: gene DRD4; human cloned receptor stably expressed in HEK293 cells; membranes
T3 sequence (P21917 1-419): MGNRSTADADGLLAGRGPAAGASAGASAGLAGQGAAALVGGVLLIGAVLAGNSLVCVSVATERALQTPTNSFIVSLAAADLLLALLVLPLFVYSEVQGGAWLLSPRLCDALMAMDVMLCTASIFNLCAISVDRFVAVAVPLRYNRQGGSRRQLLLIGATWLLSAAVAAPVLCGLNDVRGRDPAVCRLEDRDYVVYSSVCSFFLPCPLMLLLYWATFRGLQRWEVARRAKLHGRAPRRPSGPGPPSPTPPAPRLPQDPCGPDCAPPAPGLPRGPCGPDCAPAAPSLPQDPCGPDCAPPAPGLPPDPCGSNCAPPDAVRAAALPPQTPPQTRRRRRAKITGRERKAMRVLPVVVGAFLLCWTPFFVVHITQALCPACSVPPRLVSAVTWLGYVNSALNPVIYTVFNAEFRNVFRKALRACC
Description: [3H]N-methylspiperone competition, membranes on D4R (hD4.4R)

D4R (BRET assay) [1] = target: T4, D4R (BRET assay) (Homo sapiens, UniProt P21917); assay: BRET Go activation, agonist mode; type: cell-based; details: read-out: 16 (converted)
T4 construct: gene DRD4; expressed in HEK293T cells for BRET functional assays
T4 sequence (P21917 1-419): T3 sequence (P21917 1-419)

D4R (BRET assay) [2] = target: T4, D4R (BRET assay); assay: BRET Go activation, antagonist mode; type: cell-based

T2 sequence (P14416 whole entry): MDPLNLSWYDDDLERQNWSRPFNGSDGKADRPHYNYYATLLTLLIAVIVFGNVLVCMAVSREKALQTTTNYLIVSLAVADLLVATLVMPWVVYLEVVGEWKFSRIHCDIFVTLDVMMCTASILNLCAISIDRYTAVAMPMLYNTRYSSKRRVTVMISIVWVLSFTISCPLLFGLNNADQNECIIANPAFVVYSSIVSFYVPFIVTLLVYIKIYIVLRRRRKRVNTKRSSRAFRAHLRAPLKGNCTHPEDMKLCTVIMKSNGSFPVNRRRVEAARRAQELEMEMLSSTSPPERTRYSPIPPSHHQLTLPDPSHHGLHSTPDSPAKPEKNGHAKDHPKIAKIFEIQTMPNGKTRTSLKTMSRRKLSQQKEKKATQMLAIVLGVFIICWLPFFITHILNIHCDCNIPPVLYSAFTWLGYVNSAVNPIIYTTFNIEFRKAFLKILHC
T1 sequence (P35462 whole entry): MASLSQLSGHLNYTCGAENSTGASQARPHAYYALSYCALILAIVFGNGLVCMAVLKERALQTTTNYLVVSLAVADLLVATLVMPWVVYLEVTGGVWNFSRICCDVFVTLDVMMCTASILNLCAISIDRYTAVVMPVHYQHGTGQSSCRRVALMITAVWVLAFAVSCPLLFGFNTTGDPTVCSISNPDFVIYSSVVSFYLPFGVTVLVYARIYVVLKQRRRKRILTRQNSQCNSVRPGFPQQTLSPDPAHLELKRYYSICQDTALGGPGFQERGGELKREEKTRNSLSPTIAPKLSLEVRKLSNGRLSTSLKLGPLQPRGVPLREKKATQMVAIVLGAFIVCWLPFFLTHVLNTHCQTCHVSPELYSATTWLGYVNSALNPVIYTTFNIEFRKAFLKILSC

Row | SMILES | Ki (D3R (hD3R)) | Ki (D2R (hD2R)) | Ki (D4R (hD4.4R)) | EC50 (D4R (BRET assay) [1]) | IC50 (D4R (BRET assay) [2]; read-out: 16 (converted)) | IC50 (D4R (BRET assay) [2]; read-out: 12 (converted))
1 | O=C1CCc2ccccc2N1CCCC1CCN(Cc2ccccc2)CC1 [compound 16, 1-(3-(1-Benzylpiperidin-4-yl)propyl)-3,4-dihydroquinolin-2(1H)-one] | 2000 nM | 3630 nM | 1.62 nM | 4.37 nM | 61.7 nM | 
2 | O=C1CCc2ccccc2N1CC1CCN(Cc2ccccc2)CC1 [compound 18, 1-((1-Benzylpiperidin-4-yl)methyl)-3,4-dihydroquinolin-2(1H)-one] | 7590 nM | 13200 nM | 275 nM |  |  | 
3 | O=C1CCc2ccccc2N1CCN1CCC(Cc2ccccc2)CC1 [compound 12, 1-(2-(4-Benzylpiperidin-1-yl)ethyl)-3,4-dihydroquinolin-2(1H)-one] | 933 nM | 661 nM | 0.661 nM |  |  | 214 nM
4 | O=C1CCc2ccccc2N1CCCCCN1CCC(Cc2ccccc2)CC1 [compound 14, 1-(5-(4-Benzylpiperidin-1-yl)pentyl)-3,4-dihydroquinolin-2(1H)-one] | 407 nM | 813 nM | 45.7 nM |  |  | 
5 | O=C1CCc2ccccc2N1CCCN1CCc2ccccc2C1 [compound 20, 1-(3-(3,4-Dihydroisoquinolin-2(1H)-yl)propyl)-3,4-dihydroquinolin-2(1H)-one] | 229 nM | 447 nM | 28.2 nM |  |  | 

Now from value to compound:

Row | Ki (D3R (hD3R)) | Ki (D2R (hD2R)) | Ki (D4R (hD4.4R)) | EC50 (D4R (BRET assay) [1]) | IC50 (D4R (BRET assay) [2]; read-out: 16 (converted)) | IC50 (D4R (BRET assay) [2]; read-out: 12 (converted)) | SMILES
6 | 288 nM | 302 nM | 52.5 nM |  |  |  | CCCCC1CCN(CCCCCN2C(=O)CCc3ccccc32)CC1 [compound 11, 1-(5-(4-Butylpiperidin-1-yl)pentyl)-3,4-dihydroquinolin-2(1H)-one]
7 | 13200 nM | 8910 nM | 17.4 nM |  |  |  | CCCCC1CCN(CCN2C(=O)CCc3ccccc32)CC1 [compound 9, 1-(2-(4-Butylpiperidin-1-yl)ethyl)-3,4-dihydroquinolin-2(1H)-one]
8 | 302 nM | 1070 nM | 22.4 nM |  |  |  | O=C1CCc2ccccc2N1CCCCN1CCC(Cc2ccccc2)CC1 [compound 13, 1-(4-(4-Benzylpiperidin-1-yl)butyl)-3,4-dihydroquinolin-2(1H)-one]
9 | 245 nM | 575 nM | 1.51 nM |  |  |  | O=C1CCc2ccccc2N1CCCN1CC=C(c2ccccc2)CC1 [compound 19, 1-(3-(4-Phenyl-3,6-dihydropyridin-1(2H)-yl)propyl)-3,4-dihydroquinolin-2(1H)-one]
10 | 1070 nM | 10200 nM | 759 nM |  |  |  | CCCCN1CCC(CCCN2C(=O)CCc3ccccc32)CC1 [compound 15, 1-(3-(1-Butylpiperidin-4-yl)propyl)-3,4-dihydroquinolin-2(1H)-one]
11 | 8130 nM | 12600 nM | 302 nM |  |  |  | O=C1CCc2ccccc2N1CCC1CCN(Cc2ccccc2)CC1 [compound 17, 1-(2-(1-Benzylpiperidin-4-yl)ethyl)-3,4-dihydroquinolin-2(1H)-one]
12 | 309 nM | 1350 nM | 23.4 nM |  |  |  | CCCCC1CCN(CCCCN2C(=O)CCc3ccccc32)CC1 [compound 10, 1-(4-(4-Butylpiperidin-1-yl)butyl)-3,4-dihydroquinolin-2(1H)-one]
